Measurements reported in patent US10562935B2, “Stapled peptides and uses thereof” (London Health Sciences Centre Research Inc., priority 2015, dated 2020).
Bridges are numbered along the chain shown (N, C = ends).

Assay: Direct HA-binding ELISA of biotinylated peptides on HA coated plates (Example 4)
Set-up: key to HA binding: absorbance (color) read at 450 nm
Settings: for HA binding: as repeated in tables 16, 18, 20; for HA direct binding (OD): optical density, summary tables 15, 17, 19
Protocol: Each of these peptides was biotinylated at its amino-terminus, and an AEEA spacer was included to separate the peptide sequence from the biotin molecule.
HA coated plates were purchased (ECHELON). Peptides were dissolved in 2 mM PBS to constant molarity, aliquoted and stored at −20° C. until used in assays. 7 kDa biotin-labeled RHAMM (SEQ ID NO: 1) was synthesized and used as a positive control in these assays. Biotin labeled peptides were added to the HA coated wells (n=3 replicates/peptide) at either 0.8 or 0.08 μM and then incubated with shaking overnight at 4° C. Wells were washed free of excess unbound peptides using 200 μl PBS (4 times). 100 μl of Streptavidin-HRP was then added to each well and the plate was incubated at room temperature for 1 hr. The plate was then washed with 200 μl PBS/well 4 times and TMB Liquid Substrate System for ELISA (Sigma) was added to each well, incubated for 5-10 min at room temperature and color read at 450 nm Plate Reader (BioTek, SYNERGY H4, Hybrid Reader).
Direct HA-binding results for the biotinylated equivalents of compounds 132 and 150-161 are show in FIG. 39, and results for compounds 265-268 and 275-278 are shown in FIG. 40.

Row | Substance | HA binding | HA direct binding (OD) | direct HA binding (in words) (biotinylated equivalents of the named compounds, 0.8 or 0.08 μM, vs PBS only control)
1 | Ac-(cyclo-4,8)-NLK[EKIKK]VVKLKDE-NH2 (Ac-NLKEKIKKVVKLKDE-NH2; lactam 4-8; SMILES CC[C@H](C)[C@@H]1NC(=O)[C@H](CCCCN)NC(=O)[C@@H](NC(=O)[C@H](CCCCN)NC(=O)[C@H](CC(C)C)NC(=O)[C@H](CC(N)=O)NC(C)=O)CCC(=O)NCCCC[C@@H](C(=O)N[C@H](C(=O)N[C@H](C(=O)N[C@@H](CCCCN)C(=O)N[C@@H](CC(C)C)C(=O)N[C@@H](CCCCN)C(=O)N[C@@H](CC(=O)O)C(=O)N[C@@H](CCC(=O)O)C(N)=O)C(C)C)C(C)C)NC(=O)[C@H](CCCCN)NC1=O) [Compound 157] | 0.02 | 0.02 | 
2 | Ac-(cyclo-4,8)-VSK[ERSQK]VKRKQN-NH2 (Ac-VSKERSQKVKRKQN-NH2; lactam 4-8; SMILES CC(=O)N[C@H](C(=O)N[C@@H](CO)C(=O)N[C@@H](CCCCN)C(=O)N[C@H]1CCC(=O)NCCCC[C@@H](C(=O)N[C@H](C(=O)N[C@@H](CCCCN)C(=O)N[C@@H](CCCNC(=N)N)C(=O)N[C@@H](CCCCN)C(=O)N[C@@H](CCC(N)=O)C(=O)N[C@@H](CC(N)=O)C(N)=O)C(C)C)NC(=O)[C@H](CCC(N)=O)NC(=O)[C@H](CO)NC(=O)[C@H](CCCNC(=N)N)NC1=O)C(C)C) [Compound 150] | 0.015 | 0.015 | 
3 | Ac-(cyclo-5,9)-NLKQ[EIKHK]VKLKDE-NH2 (Ac-NLKQEIKHKVKLKDE-NH2; lactam 5-9; SMILES CC[C@H](C)[C@@H]1NC(=O)[C@@H](NC(=O)[C@H](CCC(N)=O)NC(=O)[C@H](CCCCN)NC(=O)[C@H](CC(C)C)NC(=O)[C@H](CC(N)=O)NC(C)=O)CCC(=O)NCCCC[C@@H](C(=O)N[C@H](C(=O)N[C@@H](CCCCN)C(=O)N[C@@H](CC(C)C)C(=O)N[C@@H](CCCCN)C(=O)N[C@@H](CC(=O)O)C(=O)N[C@@H](CCC(=O)O)C(N)=O)C(C)C)NC(=O)[C@H](Cc2c[nH]cn2)NC(=O)[C@H](CCCCN)NC1=O) [Compound 158] | 0.005 | 0.005 | 
4 | Ac-(cyclo-5,9)-VSKL[ESQLK]KRKQN-NH2 (Ac-VSKLESQLKKRKQN-NH2; lactam 5-9; SMILES CC(=O)N[C@H](C(=O)N[C@@H](CO)C(=O)N[C@@H](CCCCN)C(=O)N[C@@H](CC(C)C)C(=O)N[C@H]1CCC(=O)NCCCC[C@@H](C(=O)N[C@@H](CCCCN)C(=O)N[C@@H](CCCNC(=N)N)C(=O)N[C@@H](CCCCN)C(=O)N[C@@H](CCC(N)=O)C(=O)N[C@@H](CC(N)=O)C(N)=O)NC(=O)[C@H](CC(C)C)NC(=O)[C@H](CCC(N)=O)NC(=O)[C@H](CO)NC1=O)C(C)C) [Compound 151] | 0.01 | 0.01 | 
5 | Ac-(cyclo-6,10)-NLKQK[EKHVK]KLKDE-NH2 (Ac-NLKQKEKHVKKLKDE-NH2; lactam 6-10; SMILES CC(=O)N[C@@H](CC(N)=O)C(=O)N[C@@H](CC(C)C)C(=O)N[C@@H](CCCCN)C(=O)N[C@@H](CCC(N)=O)C(=O)N[C@@H](CCCCN)C(=O)N[C@H]1CCC(=O)NCCCC[C@@H](C(=O)N[C@@H](CCCCN)C(=O)N[C@@H](CC(C)C)C(=O)N[C@@H](CCCCN)C(=O)N[C@@H](CC(=O)O)C(=O)N[C@@H](CCC(=O)O)C(N)=O)NC(=O)[C@H](C(C)C)NC(=O)[C@H](Cc2c[nH]cn2)NC(=O)[C@H](CCCCN)NC1=O) [Compound 159] | 0.009 | 0.009 | 
6 | Ac-(cyclo-6,10)-VSKLR[EQLVK]RKQN-NH2 (Ac-VSKLREQLVKRKQN-NH2; lactam 6-10; SMILES CC(=O)N[C@H](C(=O)N[C@@H](CO)C(=O)N[C@@H](CCCCN)C(=O)N[C@@H](CC(C)C)C(=O)N[C@@H](CCCNC(=N)N)C(=O)N[C@H]1CCC(=O)NCCCC[C@@H](C(=O)N[C@@H](CCCNC(=N)N)C(=O)N[C@@H](CCCCN)C(=O)N[C@@H](CCC(N)=O)C(=O)N[C@@H](CC(N)=O)C(N)=O)NC(=O)[C@H](C(C)C)NC(=O)[C@H](CC(C)C)NC(=O)[C@H](CCC(N)=O)NC1=O)C(C)C) [Compound 152] | 0.005 |  | bound poorly to HA
7 | Ac-(cyclo-7,11)-NLKQKI[EHVVK]LKDE-NH2 (Ac-NLKQKIEHVVKLKDE-NH2; lactam 7-11; SMILES CC[C@H](C)[C@H](NC(=O)[C@H](CCCCN)NC(=O)[C@H](CCC(N)=O)NC(=O)[C@H](CCCCN)NC(=O)[C@H](CC(C)C)NC(=O)[C@H](CC(N)=O)NC(C)=O)C(=O)N[C@H]1CCC(=O)NCCCC[C@@H](C(=O)N[C@@H](CC(C)C)C(=O)N[C@@H](CCCCN)C(=O)N[C@@H](CC(=O)O)C(=O)N[C@@H](CCC(=O)O)C(N)=O)NC(=O)[C@H](C(C)C)NC(=O)[C@H](C(C)C)NC(=O)[C@H](Cc2c[nH]cn2)NC1=O) [Compound 160] | 0.004 | 0.004 | 
8 | Ac-(cyclo-7,11)-VSKLRS[ELVKK]KQN-NH2 (Ac-VSKLRSELVKKKQN-NH2; lactam 7-11; SMILES CC(=O)N[C@H](C(=O)N[C@@H](CO)C(=O)N[C@@H](CCCCN)C(=O)N[C@@H](CC(C)C)C(=O)N[C@@H](CCCNC(=N)N)C(=O)N[C@@H](CO)C(=O)N[C@H]1CCC(=O)NCCCC[C@@H](C(=O)N[C@@H](CCCCN)C(=O)N[C@@H](CCC(N)=O)C(=O)N[C@@H](CC(N)=O)C(N)=O)NC(=O)[C@H](CCCCN)NC(=O)[C@H](C(C)C)NC(=O)[C@H](CC(C)C)NC1=O)C(C)C) [Compound 153] | 0.08 | 0.08 | 
9 | Ac-(cyclo-7-11, cyclo-28-32)-NLKQKI[EHVVK]LKDENSQLKSEVSKLR[EQLVK]RKQN-NH2 (Ac-NLKQKIEHVVKLKDENSQLKSEVSKLREQLVKRKQN-NH2; lactam 7-11, 28-32; SMILES CC[C@H](C)[C@H](NC(=O)[C@H](CCCCN)NC(=O)[C@H](CCC(N)=O)NC(=O)[C@H](CCCCN)NC(=O)[C@H](CC(C)C)NC(=O)[C@H](CC(N)=O)NC(C)=O)C(=O)N[C@H]1CCC(=O)NCCCC[C@@H](C(=O)N[C@@H](CC(C)C)C(=O)N[C@@H](CCCCN)C(=O)N[C@@H](CC(=O)O)C(=O)N[C@@H](CCC(=O)O)C(=O)N[C@@H](CC(N)=O)C(=O)N[C@@H](CO)C(=O)N[C@@H](CCC(N)=O)C(=O)N[C@@H](CC(C)C)C(=O)N[C@@H](CCCCN)C(=O)N[C@@H](CO)C(=O)N[C@@H](CCC(=O)O)C(=O)N[C@H](C(=O)N[C@@H](CO)C(=O)N[C@@H](CCCCN)C(=O)N[C@@H](CC(C)C)C(=O)N[C@@H](CCCNC(=N)N)C(=O)N[C@H]2CCC(=O)NCCCC[C@@H](C(=O)N[C@@H](CCCNC(=N)N)C(=O)N[C@@H](CCCCN)C(=O)N[C@@H](CCC(N)=O)C(=O)N[C@@H](CC(N)=O)C(N)=O)NC(=O)[C@H](C(C)C)NC(=O)[C@H](CC(C)C)NC(=O)[C@H](CCC(N)=O)NC2=O)C(C)C)NC(=O)[C@H](C(C)C)NC(=O)[C@H](C(C)C)NC(=O)[C@H](Cc2c[nH]cn2)NC1=O) [Compound 278] | 0.125 | 0.125 | 
10 | Ac-(cyclo-8,12)-NLKQKIK[EVVKK]KDE-NH2 (Ac-NLKQKIKEVVKKKDE-NH2; lactam 8-12; SMILES CC[C@H](C)[C@H](NC(=O)[C@H](CCCCN)NC(=O)[C@H](CCC(N)=O)NC(=O)[C@H](CCCCN)NC(=O)[C@H](CC(C)C)NC(=O)[C@H](CC(N)=O)NC(C)=O)C(=O)N[C@@H](CCCCN)C(=O)N[C@H]1CCC(=O)NCCCC[C@@H](C(=O)N[C@@H](CCCCN)C(=O)N[C@@H](CC(=O)O)C(=O)N[C@@H](CCC(=O)O)C(N)=O)NC(=O)[C@H](CCCCN)NC(=O)[C@H](C(C)C)NC(=O)[C@H](C(C)C)NC1=O) [Compound 161] | 0.009 | 0.009 | 
11 | Ac-(cyclo-10-14, cyclo-15-19)-KIKHVVKLK[EENSK][EKSEK]SKLRSQLVKRK-NH2 (Ac-KIKHVVKLKEENSKEKSEKSKLRSQLVKRK-NH2; lactam 10-14, 15-19; SMILES CC[C@H](C)[C@H](NC(=O)[C@H](CCCCN)NC(C)=O)C(=O)N[C@@H](CCCCN)C(=O)N[C@@H](Cc1c[nH]cn1)C(=O)N[C@H](C(=O)N[C@H](C(=O)N[C@@H](CCCCN)C(=O)N[C@@H](CC(C)C)C(=O)N[C@@H](CCCCN)C(=O)N[C@H]1CCC(=O)NCCCC[C@@H](C(=O)N[C@H]2CCC(=O)NCCCC[C@@H](C(=O)N[C@@H](CO)C(=O)N[C@@H](CCCCN)C(=O)N[C@@H](CC(C)C)C(=O)N[C@@H](CCCNC(=N)N)C(=O)N[C@@H](CO)C(=O)N[C@@H](CCC(N)=O)C(=O)N[C@@H](CC(C)C)C(=O)N[C@H](C(=O)N[C@@H](CCCCN)C(=O)N[C@@H](CCCNC(=N)N)C(=O)N[C@@H](CCCCN)C(N)=O)C(C)C)NC(=O)[C@H](CCC(=O)O)NC(=O)[C@H](CO)NC(=O)[C@H](CCCCN)NC2=O)NC(=O)[C@H](CO)NC(=O)[C@H](CC(N)=O)NC(=O)[C@H](CCC(=O)O)NC1=O)C(C)C)C(C)C) [Compound 266] | 0.24 | 0.24 | 
